# In patent publication US10238710B2, “Peptide having anti-inflammatory, osteogenic and hair growth promoting activities, and use of same” (CAREGEN CO., LTD., priority 2014, dated 2019):
# Columns and labels:
# TNFR = experiment: Receptor binding assay (TNFR), ELISA; conditions: peptide coated 50 μg/25 μl, O.D. 450 nm, positive control TNF-α
# RAW264.7 cells = experiment: Proliferation assay of macrophages treated with TNF-α (SRB); assay type: cell-based, mouse; conditions: 100 ng/ml TNF-α and 50 μg/ml peptide, 72 hours
# Description: The mouse macrophage cell line, raw 264.7 cells were seeded on a 48-well plate at a density of 1×10^4 cells/well. After stabilization for 24 hours, the cells were incubated in a serum-free medium for 6 hours, and then simultaneously treated with 100 ng/ml TNF-α and 50 μg/ml peptide, followed by incubation for 72 hours. After the completion of the incubation, the supernatant was removed and the cells were immobilized using ethanol, and after the cell immobilization was ended, the cells were washed three times with phosphate buffer saline (PBS). After the wash solution was removed, the cells were treated with colorimetric SRB solution, and sufficiently washed with 1% acetic acid. Then, the cells were observed using a microscope to observe the conditions of living cells. The absorbance for the solution decolorized with 20 mM tris was read at UV light of 560 nm, thereby measuring the survival conditions of cells.
# IL-8 = IL-8 ELISA in THP-1 cells treated with TNF-α; assay type: cell-based, human; conditions: 10 μg/ml pre-treatment 30 minutes, 50 ng/ml TNF-α, 24 hours
# Description: The human monocytes, THP-1 cells were seeded on a 24-well plate at a density of 2×10^6 cells/well. After incubation overnight, the cells were pre-treated with the samples at 10 μg/ml for 30 minutes, and treated with 50 ng/ml TNF-α, followed by incubation for 24 hours. The cell incubation medium was obtained, followed by centrifugation at 13,000 rpm for 10 minutes at 4° C., and then the supernatant was separated. ELISA was carried out using IL-1b and IL-8 ELISA kit (R&D system).
# MC3T3-E1 cells = experiment: Alizarin red staining (mineralization) of MC3T3-E1 cells; assay type: cell-based, mouse; conditions: MC3T3-E1, 10 and 50 μg/ml, 14 days
# Description: Here, the medium exchange every three days and the treatment with the peptide were repeated (positive control: 30 ng/ml rhBMP2 (Cell signaling)). After the completion of the incubation, the plate well was washed two times with PBS, and the cells were immobilized by the treatment with 70% EtOH for 1 hour. Then, the cells were stained with 40 mM Alizarin red S (pH 4.2, Sigma Aldrich) for 10 minutes. The cells were treated with 10% cetyl pyridinium chloride (dissolved in 10 mM sodium phosphate (pH 7.0)) for 15 minutes, and then the absorbance was read at 560 nm using a spectrophotometer (SpectraMax, Molecular Devices).
# osteoprotegerin (OPG) = experiment: RT-PCR of osteogenic differentiation marker OPG; assay type: cell-based, mouse; conditions: MC3T3-E1, three days
# bone sialoprotein (BSP) = experiment: RT-PCR of osteogenic differentiation marker BSP; assay type: cell-based, mouse; conditions: MC3T3-E1, three days
# [1] = tested on: human hair follicle germinal matrix cells (HFGMC); experiment: Cell proliferation assay (SRB), HFGMC; assay type: cell-based; conditions: 1, 10 and 50 μg/ml, 72 hours
# Description: In order to observe the cell proliferation effect on human hair follicle dermal papilla cells, human hair follicle germinal matrix cells, and human umbilical vein endothelial cells, which are main hair cells, each type of cells were seeded on a 96-well plate at a density of 3×10^3 cells/well, followed by incubation under conditions of 37° C. and 5% CO2 for 24 hours. After the medium was exchanged with the same culture medium completely excluding serum, the cells were treated with the peptides at different concentrations (1 μg/ml, 10 μg/ml, and 50 μg/ml), followed by incubation under the same conditions for 72 hours. After the incubation supernatant was removed, the cells were immobilized using ethanol, and washed three times with phosphate buffer saline (PBS). The wash solution was removed, and the cells were stained through the treatment with colorimetric SRB solution. After the cells were sufficiently washed with 1% acetic acid, the cells were observed using a microscope to observe the state of living cells. The absorbance was read at UV light of 560 nm, thereby measuring the survival conditions of cells
# Phospho-ERK (pERK) = experiment: Western blotting of cell signaling material, ERK phosphorylation; assay type: cell-based, human; conditions: HFDPC, 1 and 10 μg/ml, 30 minutes and 60 minutes
# Description: (§1) In order to observe the changes in the phosphorylation of ERK and the expression of PI3K, which are main signaling materials involved in cell proliferation in the human hair follicle dermal papilla cells, the cells were treated with the peptides of the present invention for 30 minutes and 60 minutes, and then subjected to western blotting using specific antibodies, thereby observing the pERK and PI3K changes. The test was carried out using anti-pERK antibody (Santa Cruz Biotechnology, USA) and anti-pPI3K antibody (Santa Cruz Biotechnology, USA).
# (§2) The cells were treated with the cell lysis buffer to obtain a lysate, followed by protein quantification, and then western blotting was performed with respect to Phospho-ERK (pERK), PI3K, and β-catenin.
# PI3K = experiment: Western blotting of cell signaling material, PI3K; assay type: cell-based, human; conditions: HFDPC, 1 and 10 μg/ml, 30 minutes and 60 minutes
# Description: as §1, §2
# β-catenin = experiment: Western blotting of cell signaling material, β-catenin; assay type: cell-based, human; conditions: HFDPC, 1 and 10 μg/ml, 30 minutes and 60 minutes
# Description: as §1, §2
# IGF-1 = experiment: Western blotting of hair growth protein IGF-1; assay type: cell-based, human; conditions: HFDPC, 0.1-50 μg/ml, 24 hours
# Description: In order to observe the changes in the expression of IGF1, KGF, and Wnt3a, which are proteins involved in the development of hair roots in the human hair follicle dermal papilla cells, the cells were treated with the peptides of the present invention for 24 hours, and then subjected to western blotting using specific antibodies, thereby observing the changes in hair growth-related proteins.
# The cells were stabilized by the incubation overnight, and then treated with the peptides at different concentrations (0.1-50 μg/ml) for 24 hours. The cells were treated with the cell lysis buffer to obtain a lysate, followed by protein quantification, and then western blotting was performed with respect to IGF-1, KGF, and Wnt3a.
# The test was carried out using anti-IGF-1 antibody (Santa Cruz Biotechnology, USA), anti-KGF antibody (Santa Cruz Biotechnology, USA), and anti-Wnt3a antibody (Santa Cruz Biotechnology, USA).
# DKK-1 = experiment: Western blotting of DKK-1 with hair loss causing hormone DHT; assay type: cell-based, human; conditions: HFDPC, 5 μg/ml DHT together with peptide 1 and 10 μg/ml, 48 hours
# Description: The cells were treated with DHT and the peptides for 48 hours, and then subjected to western blotting with respect to DKK-1 using specific antibodies, thereby observing the expression of DKK-1.
# The human hair follicle dermal papilla cells were seeded on a 6-well plate at a density of 1×10^5 cells/well. The cells were stabilized by incubation overnight, and then treated with 5 μg/ml DHT (Sigma Aldrich) together with the peptides at different concentrations (1 μg/ml and 10 μg/ml) for 48 hours. The cells were treated with the cell lysis buffer to obtain a lysate, followed by protein quantification, and then western blotting was performed with respect to DKK-1 using anti-DKK-1 antibody (Santa Cruz Biotechnology, USA).
substance,measurement,setting,value
NH2-Ala-Cys-Arg-Ser-Ala-Ile-Gly-Arg-Pro-Cys-COOH (H-ACRSAIGRPC-OH; cysteine pairing not given here) [SEQ ID NO: 1],binding affinity to TNFR,TNFR,high binding affinity
same,proliferation of RAW264.7 cells increased with TNF-α treatment,RAW264.7 cells,reduced
same,expression of IL-8 increased by TNF-α treatment,IL-8,inhibited
same,mineralization (Alizarin red staining),MC3T3-E1 cells,increased
same,expression of osteoprotegerin (OPG),osteoprotegerin (OPG),increased
same,expression of bone sialoprotein (BSP),bone sialoprotein (BSP),increased
same,"cell proliferation, HFGMC",[1],increased in a concentration-dependent manner
same,phosphorylation of ERK,Phospho-ERK (pERK),increased
same,level of PI3K,PI3K,increased
same,expression of β-catenin,β-catenin,increased
same,expression of IGF-1,IGF-1,increased
same,expression of DKK-1 increased by DHT,DKK-1,reduced
